Reference: US20240408112A1, “METHOD FOR PREVENTING OR TREATING PULMONARY ARTERIAL HYPERTENSION BY USING 7-DEHYDROCHOLESTEROLS OR SALTS, OXIDES, METABOLITES, OR DERIVATIVES THEREOF” (EXCELSIOR PHARMATECH LABS., priority 2023, published 2024)

Test system: human pulmonary artery smooth muscle cells (hPASMC)
Experiment: BrdU cell proliferation assay, 0.1% FBS, 100 pM TGF-β, hPASMC
Type: cell-based
Settings: hPASMC, 100 pM TGF-β, 0.1% FBS
Experimental: BrdU (5-bromo-2-deoxyuridine) cell proliferation assay (BrdU assay)
A 48-well plate was used, and 1.5×10^4 cells were implanted in each well. After 24 hours, the medium was changed to serum-free culture medium and synchronized for 24 hours. A 2-fold concentration of the compound in serum-free culture medium is prepared and the cells were pretreated for 1 hour. Then, the same volume of culture medium containing 20% fetal bovine serum (FBS) was added to dilute the compound. The final concentration was 10% FBS culture medium and 1 times the concentration of the compound. In the experimental group that added TGF-β, the same volume of TGF-β culture medium containing 10 ng/mL was added, with a final concentration of 5 ng/mL TGF-β and 1 times the concentration of the compound, and in the experimental group added with TGF-β, the entire process was conducted in culture medium containing 0.1% serum. Then, BrdU reagent was added about 6 hours later, and the cells were collected the next day for enzyme-linked immunosorbent assay (ELISA) analysis, the compound treatment time was about 24 hours, and the BrdU treatment time was about 18 hours.
Five compounds to be tested were screened by cell survival assay (MTT assay) and BrdU (5-bromo-2-deoxyuridine) cell proliferation assay, and the information of these compounds was listed in Table 1 below. Tables 2 and 3 respectively listed the growth inhibitions of on human pulmonary artery endothelial cells (hPAEC), human pulmonary artery smooth muscle cells (hPASMC), normal rat pulmonary artery smooth muscle cells (rPASMC, as the control group, represented by “CON”), and rat pulmonary artery smooth muscle cells (represented by “MCT”), by the five compounds to be tested under the conditions of 10% FBS, 0.1% FBS and 100 pM TGF-β.

CC(C)CCCC(C)C1CCC2C3=CC=C4CC(O)CCC4(C)C3CCC21C (centres unmarked) [Code 039, 7-DHC] was tested, and the EC50 (Homo sapiens, read-out: EC50) was 24 µM and the “Inhibition of cell growth (in words)” value (25 μM, FIG. 3) was “inhibition of cell growth”.
